Drawing on patent publication US5428038A, “Benzopyranones, a method for producing them and uses therefor” (Dr. Willmar Schwabe GmbH & Co., priority 1991, dated 1995), this text covers responders and ED50 for 31 compounds.

A word on the ED50: it is the dose that gives a 50% effect, or the effect in half of the subjects. A higher ED50 goes with weaker potency.

In the assay the test system is NMDA-induced death. As to the kind of experiment: NMDA test (25 mg/kg i.v.), prevention of NMDA-induced death (neuroprotective efficacy). The note with it: Mus musculus, po, NMDA 25 mg/kg i.v.; for responders at 50 mg/kg: 50 mg/kg p.o. 1 h before test; for responders at 50 mg/kg / responders at 100 mg/kg / responders at 25 mg/kg / responders at 5 mg/kg: read-out: Protective action (percentage of surviving animals); for responders at 100 mg/kg: 100 mg/kg p.o. 1 h before test; for responders at 25 mg/kg: 25 mg/kg p.o. 1 h before test; for responders at 5 mg/kg: 5 mg/kg p.o. 1 h before test; for ED50: 1 h, dose protecting 50% of animals against NMDA-induced death one hour after application. Format: in vivo, male NMRI mice. As for the experimental part:
In order to determine the neuroprotective and anticonvulsive activity of the compounds in accordance with the invention of the general formula I, two slightly different methods were employed as follows: […]
1. In order to determine the neuroprotective efficacy NMDA at a rate of 25 mg/kg/10 ml was administered intravenously to male NMRI mice with a body weight of 20 to 25 g. As a consequence of this application the animals suffer clonic and partly tonic convulsions, which lead to death. As a criterion for the efficacy of the investigated compounds prevention of death is used.
All animals used in the investigations had free access to food and water prior to the experiments. The test and reference substances were all administered as a suspension in 0.2% agar or water, partly by the intermediary of solution promoters such as for instance PEG-400, perorally using an esophageal probe. Control animals received the same volumes of the solvent with optional solution promoters. One hour after the application of the substance NMDA was administered intravenously and the animals observed for the occurrence of convulsions.
In table 1 the results of the tests (NMDA 25 mg i.v.) performed in accordance with method 1 are compiled with dosages of 5-100 mg of the compounds in accordance with the invention per kg of body weight as compared with known NMDA-antagonists. As a percentage efficacy the percentage of surviving animals is used.
The determination of the ED50 values was performed in accordance with the method described in Lichtfield and Wilcoxon, J. Pharmacol. exp. Therapeut. 96, 99 (1949) in each case with 4 to 5 groups of 10 animals per dosage rate.

With `COc1cc2oc(=O)ccc2cc1OCC(O)CN1CCN(c2cccc(C(F)(F)F)c2)CC1` (racemic) [Example 20, (±)-6-{2-hydroxy-3-[4-(3-trifluoromethylphenyl)-1-piperazinyl]propoxy}-7-methoxy-2H-1-benzopyran-2-one], the responders at 50 mg/kg was determined as 87.5%.
On the same count and under the same terms, under `COc1cc2ccc(=O)oc2cc1OCC(O)CN1CCN(c2cccc(C(F)(F)F)c2)CC1` (racemic) [Example 21, (±)-7-{2-hydroxy-3-[4-(3-trifluoromethylphenyl)-1-piperazinyl]propoxy}-6-methoxy-2H-1-benzopyran-2-one] stands 62.5%.
As for `COc1cc2oc(=O)ccc2cc1OCC(O)CN1CCC(c2ccccc2)CC1` (racemic) [Example 22, (±)-6-[2-hydroxy-3-(4-phenyl-1-piperidinyl)-propoxy]-7-methoxy-2H-1-benzopyran-2-one], the responders at 100 mg/kg worked out at 37.5%.
Consider `COc1cc2oc(=O)ccc2cc1OCC(O)CN1CCC(O)(c2ccccc2)CC1` (racemic) [Example 24, (±)-6-[2-hydroxy-3-(4-hydroxy-4-phenyl-1-piperidinyl)propoxy]-7-methoxy-2H-1-benzopyran-2-one], for which the responders at 100 mg/kg is 37.5%.
As for `COc1cc2oc(=O)ccc2cc1OCCCN1CCN(c2ccccc2)CC1` [Example 1, 7-methoxy-6-[3-(4-phenyl-1-piperazinyl)propoxy]-2H-1-benzopyran-2-one], the responders at 25 mg/kg came out at 100%.
In the case of `COc1cc2ccc(=O)oc2cc1OCCCN1CCN(c2ccccc2)CC1` [Example 2, 6-methoxy-7-[3-(4-phenyl-1-piperazinyl)propoxy]-2H-1-benzopyran-2-one], the responders at 25 mg/kg is 100%.
In the case of `CCOc1cc2oc(=O)ccc2cc1OCCCN1CCN(c2ccccc2)CC1` [Example 3, 7-ethoxy-6-[3-(4-phenyl-1-piperazinyl)propoxy]-2H-1-benzopyran-2-one], the responders at 5 mg/kg amounted to 62.5%.
As to `O=c1ccc2cc(OC3CCCC3)c(OCCCN3CCN(c4ccccc4)CC3)cc2o1` [Example 5, 6-(cyclopentyloxy)-7-[3-(4-phenyl-1-piperazinyl)propoxy]-2H-1-benzopyran-2-one], the responders at 25 mg/kg came to 87.5%.
`CCOc1cc2oc(=O)ccc2cc1OCCCN1CCN(c2ccccc2OC)CC1` [Example 7, 7-ethoxy-6-{3-[4-(2-methoxyphenyl)-1-piperazinyl]propoxy}-2H-1-benzopyran-2-one]: the ED50 was determined as 0.9 mg/kg and the responders at 5 mg/kg stood at 100%.
For `COc1cc2oc(=O)ccc2cc1OCCCN1CCC(c2ccccc2)CC1` [Example 9, 7-methoxy-6-[3-(4-phenyl-1-piperidinyl)propoxy]-2H-1-benzopyran-2-one], the responders at 25 mg/kg was 50%.
Same read-out and setting: with `CCOc1cc2ccc(=O)oc2cc1OCCCN1CCC(c2ccccc2)CC1` [Example 11, 6-ethoxy-7-[3-(4-phenyl-1-piperidinyl)propoxy]-2H-1-benzopyran-2-one] the figure was 62.5%; with `O=c1ccc2cc(OC3CCCC3)c(OCCCN3CCC(c4ccccc4)CC3)cc2o1` [Example 13, 6-(cyclopentyloxy)-7-[3-(4-phenyl-1-piperidinyl)propoxy]-2H-1-benzopyran-2-one], 100%.
In the case of `COc1cc2oc(=O)c(C)c(C)c2cc1OCCCN1CCC(c2ccccc2)CC1` [Example 29, 7-methoxy-3,4-dimethyl-6-[3-(4-phenyl-1-piperidinyl)propoxy]-2H-1-benzopyran-2-one], the responders at 25 mg/kg came to 87.5%.
On to `COc1cc2oc(=O)c(C)c(C)c2cc1OCCCN1CCN(Cc2ccc(Cl)cc2)CC1` [Example 30, 6-{3-[4-(4-chlorophenylmethyl)-1-piperazinyl]-propoxy}-7-methoxy-3,4-dimethyl-2H-1-benzopyran-2-one], for which the responders at 100 mg/kg was determined as 37.5%.
Consider `COc1cc2oc(=O)cc(C(F)(F)F)c2cc1OCCCN1CCN(c2ccccc2)CC1` [Example 31], for which the responders at 25 mg/kg is 87.5%.
Still for that read-out and setting: with `COc1cc2oc(=O)cc(C(F)(F)F)c2cc1OCCCN1CCC(c2ccccc2)CC1` [Example 32, 7-methoxy-6-[3-(4-phenyl-1-piperidinyl)propoxy]-4-(trifluoromethyl)-2H-1-benzopyran-2-one] the figure was 62.5%.
Take `CCCc1cc(=O)oc2cc(OC)c(OCCCN3CCN(c4ccccc4)CC3)cc12` [Example 33]: the ED50 was 4.4 mg/kg and the responders at 25 mg/kg was found to be 100%.
For the compound `CCCc1cc(=O)oc2cc(OC)c(OCCCN3CCC(c4ccccc4)CC3)cc12` [Example 34, 7-methoxy-6-[3-(4-phenyl-1-piperidinyl)propoxy]-4-propyl-2H-1-benzopyran-2-one], the responders at 25 mg/kg worked out at 75%.
In the case of `COc1cc2oc(=O)cc(C(C)C)c2cc1OCCCN1CCN(c2ccccc2)CC1` [Example 35, 7-methoxy-4-(1-methylethyl)-6-[3-(4-phenyl-1-piperazinyl)propoxy]-2H-1-benzopyran-2-one], the responders at 5 mg/kg was 75%.
On to `COc1cc2oc(=O)cc(C(C)C)c2cc1OCCCN1CCC(c2ccccc2)CC1` [Example 36, 7-methoxy-4-(1-methylethyl)-6-[3-(4-phenyl-1-piperidinyl)propoxy]-2H-1-benzopyran-2-one], for which the responders at 25 mg/kg was found to be 50%.
Same read-out and setting: with `CCCCc1c(C)c2cc(OCCCN3CCN(c4ccccc4)CC3)c(OC)cc2oc1=O` [Example 37, 3-butyl-7-methoxy-4-methyl-6-[3-(4-phenyl-1-piperazinyl)propoxy]-2H-1-benzopyran-2-one] the figure was 100%; with `CCCCc1c(C)c2cc(OCCCN3CCC(c4ccccc4)CC3)c(OC)cc2oc1=O` [Example 38, 3-butyl-7-methoxy-4-methyl-6-[3-(4-phenyl-1-piperidinyl)propoxy]-2H-1-benzopyran-2-one], 87.5%.
As for `COc1cc2oc(=O)c(-c3ccccc3)c(C)c2cc1OCCCN1CCN(c2ccccc2)CC1` [Example 41, 7-methoxy-4-methyl-3-phenyl-6-[3-(4-phenyl-1-piperazinyl)propoxy]-2H-1-benzopyran-2-one], it took a dose of 4.8 mg/kg to reach the 50% effect level (ED50) and the responders at 5 mg/kg stood at 87.5%.
Regarding `COc1cc2oc(=O)c3c(c2cc1OCCN1CCN(c2ccccc2)CC1)CCC3` [Example 44, 2,3-dihydro-7-methoxy-8-[2-(4-phenyl-1-piperazinyl)ethoxy]cyclopenta[c][1]benzopyran-4(1H)-one], the ED50 stood at 4.8 mg/kg and the responders at 25 mg/kg was determined as 87.5%.
As to `COc1cc2oc(=O)c3c(c2cc1OCCCCCN1CCN(c2ccccc2)CC1)CCC3` [Example 47, 2,3-dihydro-7-methoxy-8-[5-(4-phenyl-1-piperazinyl)pentyloxy]cyclopenta[c][1]benzopyran-4(1H)-one], the responders at 5 mg/kg was 62.5%.
For the compound `COc1cc2oc(=O)c3c(c2cc1OCCCCN1CCC(c2ccccc2)CC1)CCC3` [Example 50, 2,3-dihydro-7-methoxy-8-[4-(4-phenyl-1-piperidinyl)butyloxy]cyclopenta[c][1]benzopyran-4(1H)-one], the responders at 25 mg/kg amounted to 87.5%.
`COc1cc2oc(=O)c3c(c2cc1OCCCCCN1CCC(c2ccccc2)CC1)CCC3` [Example 51, 2,3-dihydro-7-methoxy-8-[5-(4-phenyl-1-piperidinyl)pentyloxy]cyclopenta[c][1]benzopyran-4(1H)-one]: the responders at 5 mg/kg worked out at 12.5%.
Consider `COc1cc2oc(=O)c3c(c2cc1OCCCN1CCN(c2cccc(C)c2C)CC1)CCC3` [Example 53, 8-{3-[4-(2,3-dimethylphenyl)-1-piperazinyl]propoxy}-2,3-dihydro-7-methoxy-cyclopenta[c][1]benzopyran-4(1H)-one], for which the responders at 25 mg/kg is 50%.
On to `COc1cc2oc(=O)c3c(c2cc1OCCCN1CCN(c2ccccc2OC)CC1)CCC3` [Example 54, 2,3-dihydro-7-methoxy-8-{3-[4-(2-methoxyphenyl)-1-piperazinyl]propoxy}cyclopenta[c][1]benzopyran-4(1H)-one], for which the ED50 came to 0.4 mg/kg and the responders at 5 mg/kg amounted to 100%.
`COc1cccc(N2CCN(CCCOc3cc4c5c(c(=O)oc4cc3OC)CCC5)CC2)c1` [Example 55, 2,3-dihydro-7-methoxy-8-{3-[4-(3-methoxyphenyl)-1-piperazinyl]propoxy}cyclopenta[c][1]benzopyran-4(1H)-one]: the ED50 was 1.1 mg/kg and the responders at 5 mg/kg amounted to 100%.
Regarding `COc1ccc(N2CCN(CCCOc3cc4c5c(c(=O)oc4cc3OC)CCC5)CC2)cc1` [Example 56, 2,3-dihydro-7-methoxy-8-{3-[4-(4-methoxyphenyl)-1-piperazinyl]propoxy}cyclopenta[c][1]benzopyran-4(1H)-one], the ED50 stood at 2.6 mg/kg and the responders at 5 mg/kg was found to be 87.5%.
